Data as given in patent US8962630B2, “Pyrrolopyrimidine compounds and their uses” (Novartis AG, priority 2008, dated 2015).
Read-outs that look alike come from different tables or passages of the source.

Key:
Type in all cases: biochemical
CDK4/cyclin D1 = CDK4/cyclin D1 (Homo sapiens (Human), UniProt P11802); experiment: CDK4/Cyclin D1 enzymatic activity assay (Lance TR-FRET)
Summary of the method: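 Recombinant His6-CDK4/GST-cyclin D1 (Sf21-expressed), 0.3 nM, phosphorylated 175 nM pRb152 with 3 μM ATP in HEPES pH 7.5, Mg/Mn buffer, 2% DMSO, 60 min at room temperature. Compound range 0.005-10 μM. EDTA-quenched; pRb S780 phosphorylation read by TR-FRET (Eu anti-rabbit/APC-streptavidin) for IC50.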

CDK1/cyclin B = CDK1/cyclin B (Homo sapiens (Human), UniProt P06493); experiment: CDK1/Cyclin B enzymatic activity assay (IMAP-FP)
CDK1/cyclin B, sequence (P06493 whole entry, species assumed): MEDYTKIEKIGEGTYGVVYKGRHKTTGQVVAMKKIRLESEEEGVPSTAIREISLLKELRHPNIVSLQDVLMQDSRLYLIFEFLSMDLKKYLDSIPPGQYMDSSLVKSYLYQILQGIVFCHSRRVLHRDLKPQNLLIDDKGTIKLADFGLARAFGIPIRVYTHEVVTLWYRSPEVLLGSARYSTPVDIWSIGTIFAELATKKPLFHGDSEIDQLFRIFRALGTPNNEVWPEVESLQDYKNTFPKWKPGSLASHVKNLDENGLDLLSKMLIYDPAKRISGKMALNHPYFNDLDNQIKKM
CDK1/cyclin B, sequence (P14635 whole entry partner, species assumed): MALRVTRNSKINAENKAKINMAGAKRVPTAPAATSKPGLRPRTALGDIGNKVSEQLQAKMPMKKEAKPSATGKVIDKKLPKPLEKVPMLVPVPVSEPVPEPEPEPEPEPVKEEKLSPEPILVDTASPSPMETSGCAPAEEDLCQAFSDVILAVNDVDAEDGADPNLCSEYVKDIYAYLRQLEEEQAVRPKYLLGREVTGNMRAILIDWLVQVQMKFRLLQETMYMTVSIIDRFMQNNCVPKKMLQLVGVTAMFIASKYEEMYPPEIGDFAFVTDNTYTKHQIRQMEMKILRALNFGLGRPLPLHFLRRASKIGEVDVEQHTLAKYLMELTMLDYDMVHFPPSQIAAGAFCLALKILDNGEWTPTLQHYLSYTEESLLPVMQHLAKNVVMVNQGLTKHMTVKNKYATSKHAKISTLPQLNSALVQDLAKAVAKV
Description: A 384-well microtiter IMAP-FPT™ (Molecular Devices Trade Mark Technology) endpoint assay was used for CDK1/cyclin B kinase activity measurements. The same assay was used for IC50 determination of small molecule inhibitors.

CDK2/cyclin A = CDK2/cyclin A (Homo sapiens (Human), UniProt P24941); experiment: CDK2/Cyclin A enzymatic activity assay (IMAP-FP)
[1] = Table 4, read-out: IC50 (μM) CDK4
[2] = Table 4, read-out: IC50 (μM) CDK1
[3] = Table 4, read-out: IC50 (μM) CDK2
[4] = Table 2, 3 μM ATP, read-out: CDK4
[5] = Table 2, 20 μM ATP, read-out: CDK1

CDK4/cyclin D1, sequence (P11802 whole entry): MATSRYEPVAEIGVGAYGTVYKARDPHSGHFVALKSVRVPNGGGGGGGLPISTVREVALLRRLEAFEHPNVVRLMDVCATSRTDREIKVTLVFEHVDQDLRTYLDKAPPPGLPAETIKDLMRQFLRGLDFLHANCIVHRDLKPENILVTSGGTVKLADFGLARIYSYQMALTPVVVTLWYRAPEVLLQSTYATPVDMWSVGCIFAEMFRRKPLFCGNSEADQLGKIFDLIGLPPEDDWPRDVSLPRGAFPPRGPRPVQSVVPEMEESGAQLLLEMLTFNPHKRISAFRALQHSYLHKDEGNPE
CDK4/cyclin D1, sequence (P24385 whole entry partner): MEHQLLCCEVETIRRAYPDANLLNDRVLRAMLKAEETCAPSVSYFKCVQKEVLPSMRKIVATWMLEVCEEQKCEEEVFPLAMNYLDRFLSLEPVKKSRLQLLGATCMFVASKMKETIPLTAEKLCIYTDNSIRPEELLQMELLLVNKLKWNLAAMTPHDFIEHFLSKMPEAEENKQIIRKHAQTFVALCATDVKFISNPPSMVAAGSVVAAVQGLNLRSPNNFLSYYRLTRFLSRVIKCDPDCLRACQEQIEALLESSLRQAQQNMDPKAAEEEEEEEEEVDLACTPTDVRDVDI

Row | Structure (SMILES) | IC50 (CDK4/cyclin D1; [1]) [µM] | IC50 (CDK1/cyclin B; [2]) [µM] | IC50 (CDK2/cyclin A; [3]) [µM] | IC50 (CDK4/cyclin D1; [4]) [µM] | IC50 (CDK1/cyclin B; [5]) [µM] | IC50 (CDK2/cyclin A; Table 2, read-out: CDK2) [µM]
1 | Cc1c(C(=O)N(C)C)n(C2CCCC2)c2nc(Nc3ccc(N4CCNCC4)cn3)ncc12 [Example 202, reference compound] | 2.5 | > 15 | > 15 | – | – | –
2 | CN(C)C(=O)c1cc2cnc(Nc3ccc(CN4CC(O)C4)cn3)nc2n1C1CCCC1 [Example 10A, 7-Cyclopentyl-2-[5-(3-hydroxy-azetidin-1-ylmethyl)-pyridin-2-ylamino]-7H-pyrrolo[2,3-d]pyrimidine-6-carboxylic acid dimethylamide] | – | – | – | 0.01 to 0.1 | 12 | 14
3 | CN(C)C(=O)c1cc2cnc(Nc3ccc(N4CCN(C(=O)CCC5CCCC5)CC4)cn3)nc2n1C1CCCC1 [Example 91, 7-Cyclopentyl-2-{5-[4-(3-cyclopentyl-propionyl)-piperazin-1-yl]-pyridin-2-ylamino}-7H-pyrrolo[2,3-d]pyrimidine-6-carboxylic acid dimethylamide] | – | – | – | 0.01 to 0.1 | > 15 | > 15
4 | CN(C)C(=O)c1cc2cnc(Nc3ccc(N4CCN(C(=O)CC5CCCCC5)CC4)cn3)nc2n1C1CCCC1 [Example 90, 2-{5-[4-(2-Cyclohexyl-acetyl)-piperazin-1-yl]-7H-pyridin-2-ylamino}-7-cyclopentyl-7H-pyrrolo[2,3-d]pyrimidine-6-carboxylic acid dimethylamide] | – | – | – | 0.01 to 0.1 | > 15 | > 15
5 | CN(C)C(=O)c1cc2cnc(Nc3ccc(N4CCN(C(=O)CN)CC4)cn3)nc2n1C1CCCC1 [Example 12, 2-{5-[4-(2-Amino-acetyl)-piperazin-1-yl]-pyridin-2-ylamino}-7-cyclopentyl-7H-pyrrolo[2,3-d]pyrimidine-6-carboxylic acid dimethylamide] | – | – | – | 0.01 to 0.1 | > 15 | > 15
6 | C[C@H]1CN(c2ccc(Nc3ncc4cc(C(=O)N(C)C)n(C5CCCC5)c4n3)nc2)CCN1CCO [Example 82, 7-Cyclopentyl-2-{5-[(S)-4-(2-hydroxy-ethyl)-3-methyl-piperazin-1-yl]-pyridin-2-ylamino}-7H-pyrrolo[2,3-d]pyrimidine-6-carboxylic acid dimethylamide] | – | – | – | 0.01 to 0.1 | > 15 | > 15
7 | CN(C)C(=O)c1cc2cnc(Nc3ccc(CN4CCN(C(=O)CN)CC4)cn3)nc2n1C1CCCC1 [Example 65, 2-{5-[4-(2-Amino-acetyl)-piperazin-1-ylmethyl]-pyridin-2-ylamino}-7-cyclopentyl-7H-pyrrolo[2,3-d]pyrimidine-6-carboxylic acid dimethylamide] | – | – | – | 0.01 to 0.1 | > 15 | > 15
8 | CC1CN(c2ccc(Nc3ncc4cc(C(=O)N(C)C)n(C5CCCC5)c4n3)nc2)CCN1 (stereo not drawn) [Example 19, 7-Cyclopentyl-2-[5-(3-methyl-piperazin-1-yl)-pyridin-2-ylamino]-7H-pyrrolo[2,3-d]pyrimidine-6-carboxylic acid dimethylamide] | – | – | – | 0.001 to 0.01 | > 15 | > 15
9 | CN(C)C(=O)c1cc2cnc(Nc3ccc(N(C)CCN)cn3)nc2n1C1CCCC1 [Example 59, 2-{5-[(2-Amino-ethyl)-methyl-amino]-pyridin-2-ylamino}-7-cyclopentyl-7H-pyrrolo[2,3-d]pyrimidine-6-carboxylic acid dimethylamide] | – | – | – | 0.01 to 0.1 | > 15 | > 15
10 | C[C@H]1CN(c2ccc(Nc3ncc4cc(C(=O)N(C)C)n(C5CCCC5)c4n3)nc2)CCN1C(=O)OC(C)(C)C [Example 31, (S)-4-[6-(7-Cyclopentyl-6-dimethylcarbamoyl-7H-pyrrolo[2,3-d]pyrimidin-2-ylamino)-pyridin-3-yl]-2-methyl-piperazine-1-carboxylic acid tert-butyl ester] | – | – | – | 0.1 to 1 | > 15 | > 15
11 | CN(C)C(=O)c1cc2cnc(Nc3ccc(CN4CCN(CCO)CC4)cn3)nc2n1C1CCCC1 [Example 85, 7-Cyclopentyl-2-{5-[4-(2-hydroxy-ethyl)-piperazin-1-ylmethyl]-pyridin-2-ylamino}-7H-pyrrolo[2,3-d]pyrimidine-6-carboxylic acid dimethylamide] | – | – | – | 0.01 to 0.1 | > 15 | > 15
12 | COCCN1CCN(Cc2ccc(Nc3ncc4cc(C(=O)N(C)C)n(C5CCCC5)c4n3)nc2)CC1 [Example 77, 7-Cyclopentyl-2-{5-[4-(2-methoxy-ethyl)-piperazin-1-ylmethyl]-pyridin-2-ylamino}-7H-pyrrolo[2,3-d]pyrimidine-6-carboxylic acid dimethylamide] | – | – | – | 0.01 to 0.1 | > 15 | > 15
13 | CN(C)C(=O)c1cc2cnc(Nc3ccc(N4CCN(C(=O)N5CCCC5)CC4)cn3)nc2n1C1CCCC1 [Example 22, 7-Cyclopentyl-2-{5-[4-(pyrrolidine-1-carbonyl)-piperazin-1-yl]-pyridin-2-ylamino}-7H-pyrrolo[2,3-d]pyrimidine-6-carboxylic acid dimethylamide] | – | – | – | 0.01 to 0.1 | > 15 | > 15
14 | CN(C)C(=O)c1cc2cnc(Nc3ccc(N4CCN(CC5CCCCC5)CC4)cn3)nc2n1C1CCCC1 [Example 69, 2-[5-(4-Cyclohexylmethyl-piperazin-1-yl)-pyridin-2-ylamino]-7-cyclopentyl-7H-pyrrolo[2,3-d]pyrimidine-6-carboxylic acid dimethylamide] | – | – | – | 0.01 to 0.1 | > 15 | > 15
15 | c1ncc(-c2cc3cnc(Nc4ccc(CN5CCNCC5)cn4)nc3n2C2CCCC2)o1 [Example 18, (7-Cyclopentyl-6-oxazol-5-yl-7H-pyrrolo[2,3-d]pyrimidin-2-yl)-(5-piperazin-1-ylmethyl-pyridin-2-yl)-amine] | – | – | – | 0.001 to 0.01 | 1.1 | 2.8
16 | CN(C)C(=O)c1cc2cnc(Nc3ccc(N4CCN(CCC#N)CC4)cn3)nc2n1C1CCCC1 [Example 9, 2-{5-[4-(2-Cyano-ethyl)-piperazin-1-yl]-pyridin-2-ylamino}-7-cyclopentyl-7H-pyrrolo[2,3-d]pyrimidine-6-carboxylic acid dimethylamide] | – | – | – | 0.01 to 0.1 | > 15 | > 15
17 | CN(C)C(=O)c1cc2cnc(Nc3ccc(N4CCN(CCCO)CC4)cn3)nc2n1C1CCCC1 [Example 21, 7-Cyclopentyl-2-{5-[4-(3-hydroxy-propyl)-piperazin-1-yl]-pyridin-2-ylamino}-7H-pyrrolo[2,3-d]pyrimidine-6-carboxylic acid dimethylamide] | – | – | – | 0.001 to 0.01 | > 15 | > 15
18 | O=C(c1cc2cnc(Nc3ccc(N4CCNCC4)cc3)nc2n1C1CCCC1)N1CCC1 [Example 201, reference compound] | 0.11 | 7.5 | 10.3 | – | – | –
19 | CN(C)C(=O)c1cc2cnc(Nc3ccc(N4CCN(C(=O)C5CCCCC5)CC4)cn3)nc2n1C1CCCC1 [Example 23, 2-[5-(4-Cyclohexanecarbonyl-piperazin-1-yl)-pyridin-2-ylamino]-7-cyclopentyl-7H-pyrrolo[2,3-d]pyrimidine-6-carboxylic acid dimethylamide] | – | – | – | 0.01 to 0.1 | > 15 | > 15
